Reference: US11786586B2, “Carbohydrate structures and uses thereof” (AOA Dx, priority 2016, dated 2023)

Legend:
Water solubility = type: physicochemical
Text: Carbohydrates were synthesized as previously described (Gilbert, M., et al. J Biol Chem. 277(1):327-337, 2002; Chiu, C. P., et al. Nat Struc Mol Bio. 11(2)163-170, 2004; and Blixt, O., Carbohydrate Research. 340(12):1963-1972, 2005) by modification of the process for phenylthio-GD2 in which the phenylthio moiety was substituted with a p-aminophenylether in the starting p-aminophenyl-β-D-lactopyranoside (AP-Lac, from Toronto Research Chemicals), that was subsequently used to enzymatically synthesize the respective ganglioside carbohydrate for conjugation to the dendrimer (see below). AP-GD2 and AP-GD3 were water soluble (>20 mg/ml). The measured molecular weights of AP-GD2 (1218 g/mol) and AP-GD3 (927 g/mol) corresponded to expected values. Structures were verified by 1D and 2D NMR spectroscopy and mass spectrometry (EI-MS). The AP-GD2 and AP-GD3 intermediates were purified to >99% purity by size-exclusion chromatography (Superdex 30 16 mm×85 cm column, GE Health Care) before their application in the synthesis of the tetrameric vaccines.

EL4-GD2+ cells = assay: 3H-thymidine incorporation (proliferation) assay, EL4-GD2+ stimulator cells; type: cell-based, mouse; details: 25 μg/mL Mitomycin for 1 h
Procedure: (§1) EL4-GD2+ cells and control Jurkat cells were treated with 25 μg/mL Mitomycin (Sigma) for 1 h to arrest proliferation. After the cells were washed three times with media to remove Mitomycin, they were plated in 96-well plates at 2×10^5 cells/well. Single cell suspensions of splenocytes were obtained from twice immunized (as above) and from vehicle-injected control mice. Cells were separated following the protocol of the EasySep Negative Selection Mouse T-cell Enrichment Kit (Stemcell Technologies). […] The T-cells were plated at a ratio of 10:1 with Mitomycin-treated EL4 or Jurkat cells. As controls, cultures of T-cells alone (no stimulating tumor cells) or T-cells treated with Concanavalin A were used. After 5 days of culture, 0.1 μCi/well 3H-thymidine (Sigma-Aldrich) was added. DNA-incorporated 3H-thymidine was counted by liquid scintillation, and data are reported as average cpm ±SD. […] After 7 days, in vitro, cell viability was assessed by staining with 0.1% Trypan Blue, and cells were counted using a hemocytometer. Bright field images were acquired using an Olympus CKX41 microscope, mounted with an Infinity 1 digital camera and Infinity Analyze software (Lumenera Corporation).

Jurkat cells = assay: 3H-thymidine incorporation (proliferation) assay, Jurkat stimulator cells; type: cell-based; details: 25 μg/mL Mitomycin for 1 h
Procedure: as §1

T-cells = assay: 3H-thymidine incorporation of T-cells treated with Concanavalin A; type: cell-based, mouse; details: ConA stimulation; mean±SD
Procedure: as §1

Compound: p-amino phenyl ether-GD3 [AP-GD3]
- water solubility (in words) (Water solubility): water-soluble

Compound: CO[C@@]12[C@H](COC(N)=O)C3=C(C(=O)C(C)=C(N)C3=O)N1C[C@@H]1N[C@@H]12 [Mitomycin]
- 3H-thymidine incorporation of mitomycin-treated EL4-GD2+ cells (EL4-GD2+ cells): 188±4 cpm
- 3H-thymidine incorporation of mitomycin-treated Jurkat cells (Jurkat cells): 107±5 cpm

Compound: p-amino phenyl ether-GD2 [AP-GD2]
- water solubility (in words) (Water solubility): water-soluble

Compound: Concanavalin A [ConA]
- 3H-thymidine incorporation, T-cells from Tetra-GD2 vaccinated mice (T-cells): 19,834±309 cpm
- 3H-thymidine incorporation, T-cells from naive mice (T-cells): 21,457±504 cpm
